What was measured:
[1] = test system: participants with neurologically complete thoracic spinal cord injury (T3-T11); test: Phase 1 thoracic SCI trial (NCT01217008): safety, adverse events; type: in vivo, human; conditions: N=5
Protocol: Study design. The trial design was an open-label, multicenter study. A single dose of 2×10^6 LCTOPC1 was injected within 7 to 14 days following SCI. Subjects who received LCTOPC1 also received tacrolimus to prevent rejection.
This study was a Phase 1, multi-center, non-randomized, a single group assignment interventional clinical trial. The Participants were enrolled from one of seven centers in the United States. The study was registered (NCT01217008) and the primary endpoint was safety, as measured by the frequency and severity of adverse events related to LCTOPC1, the injection procedure used to administer LCTOPC1, and/or the concomitant immunosuppression administered. The secondary endpoint was neurological function as measured by sensory scores and lower extremity motor scores on ISNCSCI examinations.
Safety Assessments. The primary endpoint of the Phase 1 clinical trial was safety, as measured by the frequency and severity of adverse events (AEs) within 1 year of LCTOPC1 injection that were related to LCTOPC1, the injection procedure used to administer LCTOPC1, and/or the concomitant immunosuppression administered. […]
Definition of an Adverse Event. […] The severity of AEs and the characterization of Serious Adverse Events (SAEs) were evaluated using standard FDA criteria.
The relationship of AEs to the investigational drug was determined by each site investigator and was categorized as “Possibly Related” based on the following criteria: 1) the AE was reasonably related in time with LCTOPC1 exposure, the injection procedure used to administer LCTOPC1, and/or the concomitant immunosuppression administered AND 2) the AE could be explained either by exposure to the investigational product or equally well by factors or causes other than exposure to the investigational product. Adverse events were monitored by the External Medical Monitor, Sponsor Medical Monitor, and DSMB.

[2] = test system: subjects with subacute cervical spinal cord injury (C4-C7, AIS A/B); test: Phase 1/2a cervical SCI dose escalation study: safety, adverse events, MRI; type: in vivo, human
Protocol: Study Design. The trial design was an open-label, staggered dose escalation, cross-sequential, multicenter study. Three sequential, escalating doses of AST-OPC1 were administered at a single tie point between 21 and 42 days post-injury to subjects with subacute cervical spinal cord injuries (SCI). Subjects received AST-OPC1 via direct intra-spinal injection using a Syringe Positioning Device (SPD). To prevent rejection of engraftment, low dose tacrolimus was initiated 6 to 12 hours after and intra-spinal injection, and continued for 46 days, tapered from Day 46 to Day 60, and was discontinued at Day 60. Subjects were followed for 1 year following administration of AST-OPC1 under this protocol. Male or female subjects from 18 to 69 years of age at time of consent with sensorimotor complete, traumatic SCI (American Spinal Injury Association Impairment Scale A) or sensorimotor incomplete, traumatic SCI (American Spinal Injury Association Impairment Scale B). […] There was a single spinal cord lesion on a post-stabilization magnetic resonance imaging (MRI) scan, with sufficient visualization of the spinal cord injury epicenter and lesion margins to enable post-injection safety monitoring. Subjects were able to participate in an elective surgical procedure to inject AST-OPC1 21 to 42 days following SCI. Subjects received a single dose of either 2×10^6, 1×10^7, or 2×10^7 AST-OPC1 viable cells by injection, administered 21 to 42 days following SCI. The product was delivered intraoperatively into the spinal cord using the Syringe Positioning Device. The AST-OPC1 batch numbers used in this study were M08D1A, M22D1A and M25D1A. Single administration of AST-OPC1 was provided with 1 year of follow-up. Schematics of the planned study timeline, and subject screening and treatment, are provided in FIG. 6 and FIG. 7, respectively. A schematic diagram of the final open-label, staggered dose-escalation, multicenter Phase 1/2a clinical trial is shown in FIG. 8. An overview of study visits for the one-year protocol is presented in the study schema in FIG. 9.
A neurological examination was completed using the standardized International Standards for Neurological Classification of Spinal Cord Injury (ISNCSCI) examination for motor and sensory testing and for designation of the American Spinal Injury Association impairment scale. The ISNCSCI is used for efficacy with respect to improved motor function in the extremities, improved sensory function, and/or a descending neurological level. Safety assessments included physical examination, vital signs, ISNCSCI neurological examination, pain questionnaire (International Spinal Cord Injury Pain Basic Data Set, ISCIPBDS), electrocardiogram (ECG), Magnetic Resonance Imaging (MRI), laboratory tests, concomitant medications, and adverse events (AEs). Results for the ISNCSCI were listed for each subject by scheduled visit and analyzed by change in motor level and motor scores as well as other exploratory assessments of arm/hand function, self-care ability and overall volitional performance. Adverse events were tabulated by system organ class and by preferred term within system organ class according to the Medical Dictionary for Regulatory Activities (MedDRA®) Version 18.0. Statistical analysis of the safety data was performed using descriptive statistical methods including AEs incidence, severity and relatedness to AST-OPC1, to the injection procedure for product administration, and concomitant immunosuppression with tacrolimus. The number of laboratory assessments (hematology, clinical chemistry) that were below, within, or above the normal laboratory reference range were summarized for each analyte at scheduled study visits. Vital signs were summarized by calculating the mean, standard deviation, median, and range of values at each of the protocol-specified time points.
Study Endpoints. […]

[3] = test system: dorsal funicular lesion (DFL) SCI model; conditions: cited from earlier work

For `C=CC[C@@H]1/C=C(\C)C[C@H](C)C[C@H](OC)[C@H]2O[C@@](O)(C(=O)C(=O)N3CCCC[C@H]3C(=O)O[C@H](/C(C)=C/[C@@H]3CC[C@@H](O)[C@H](OC)C3)[C@H](C)[C@@H](O)CC1=O)[C@H](C)C[C@@H]2OC` [Tacrolimus, tacrolimus], the “Grade 1 AEs possibly related specifically to tacrolimus (number)” value [1] was “Seven”, the “Grade 2 AEs possibly related specifically to tacrolimus (number)” value [1] was “nine” and the “AEs possibly related specifically to the immunosuppression (number of the 25)” value ([1]; tacrolimus to Day 60, trough 3 to 7 ng/mL) was “Sixteen”. The “Hypomagnesemia: Days from Injection” value ([2]; both, human, in vivo) was 5 to 43 days, the “Nausea: Days from Injection” value ([2]; both, human, in vivo) was 7 days and the “Decreased Appetite: Severity” value ([2]; both, human, in vivo, 365 days) was “Grade 2”. For the same molecule, the “Hypomagnesemia: Severity” value ([2]; both, human, in vivo, 365 days) was “Grade 1-2”, the “Nausea: Severity” value ([2]; both, human, in vivo, 365 days) was “Grade 2” and the “Bacterial infection: Days from Injection” value ([2]; causality Tacrolimus) was 30 days. The “Bacterial infection: Outcome” value ([2]; causality Tacrolimus) was “Resolved”, the “Bacterial infection: Severity” value ([2]; causality Tacrolimus) was “Grade 3” and the “Decreased Appetite: Outcome” value ([2]; in vivo) was “Resolved”. The “Hypomagnesemia: Outcome” value ([2]; in vivo) was “Resolved” and the “Nausea: Outcome” value ([2]; in vivo) was “Resolved”.

B1: Decorin: small leucine-rich proteoglycan, TGF-β1/2 antagonist; recombinant form tested in rat SCI models (protein, UniProt P07585 31-359, looked up)
Decorin: DEASGIGPEVPDDRDFEPSLGPVCPFRCQCHLRVVQCSDLGLDKVPKDLPPDTTLLDLQNNKITEIKDGDFKNLKNLHALILVNNKISKVSPGAFTPLVKLERLYLSKNQLKELPEKMPKTLQELRAHENEITKVRKVTFNGLNQMIVIELGTNPLKSSGIENGAFQGMKKLSYIRIADTNITSIPQGLPPSLTELHLDGNKISRVDAASLKGLNNLAKLGLSFNSISAVDNGSLANTPHLRELHLDNNKLTRVPGGLAEHKYIQVVYLHNNNISVVGSSDFCPPGHNTKKASYSGVSLFSNPVQYWEIQPSTFRCVYVRSAIQLGNYK
In the case of B1, the “Acute scarring and wound cavitation” value ([3]; DFL SCI model, adult rats) is listed as “suppressed acute scarring (fibrogenesis) and wound cavitation”, the Axonal regrowth ([3]; acute and chronic experiments, vs PBS-treated DFL) is listed as “promoted axonal regrowth” and the “Inflammation, glial scar formation and CSPG expression” value ([3]; after acute spinal cord injury) is listed as “inhibit inflammation, glial scar formation and CSPG expression”.

From US20240082311A1, “COMPOSITIONS AND METHODS FOR TREATING SPINAL CORD INJURIES” (ASTERIAS BIOTHERAPEUTICS, INC., priority 2021, published 2024)
